In article PMC12362618, “Development of the First Small-Molecule Inhibitor Targeting Oncostatin M for Treatment of Breast Cancer” (Journal of Medicinal Chemistry, 2025):
Several values for one entry are separate records, joined by “and”; a condition that tells them apart may be missing. Identical values can stand only once. Entries after “also recorded” stand apart in the source; their conditions may differ.

Assays:
[1] = molecular target: T1, gp130 binding to immobilized OSM (Homo sapiens, UniProt P13725); assay: SPR surface competition binding assay between gp130 and SMI for immobilized OSM; conditions: gp130 50 nM
T1 construct: purchased R&D Systems 671-GP
T1 sequence (P13725 26-212 limits assumed): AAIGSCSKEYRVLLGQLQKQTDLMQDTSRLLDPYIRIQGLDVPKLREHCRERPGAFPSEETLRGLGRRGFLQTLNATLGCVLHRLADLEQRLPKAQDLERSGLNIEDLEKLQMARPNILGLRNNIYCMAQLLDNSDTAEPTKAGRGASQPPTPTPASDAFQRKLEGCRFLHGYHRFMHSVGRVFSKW
Experimental: SPR experiments were performed on a Reichert SR7000 instrument that was fed by a Surveyor LC autosampler and pump. All experiments were conducted at 25 °C. In all experiments, OSM (∼24 kDa; as previously described) was immobilized to the surface of a PEF-10% carboxyl mixed self-assembled monolayer gold sensor chip (Reichert part #13206061), and the experiments were completed within 3 days. The immobilization phase was conducted using sterile-filtered, fresh 10 mM acetate buffer, pH 5, at a flow rate of 15 μL/min. The chip was first washed with 100 μL of 2 M NaCl in DI water and 100 μL of 10 mM NaOH in DI water. The chip was activated with a 100 μL injection of 10 mg/mL N-hydroxysuccinimide (NHS) and 40 mg/mL 1-ethyl-3-(3-dimethylaminopropyl)­carbodiimide (EDC) mixed in 1 mL of nanopure water immediately before injecting. Then, a 200 μg/mL solution of OSM (100–300 μL) in acetate buffer was diluted and injected multiple times with 100 μL injections to achieve a response of about 600–1000 RU. The remaining reactive NHS groups were then deactivated with a 100 μL injection of 1 M ethanolamine hydrochloride in DI H2O. […] The real-time changes in refractive index units of the association and dissociation phases were monitored. […]

[2] = test system: MCF-7-luc-OSM-overexpressing breast tumor cells; assay: ER+ orthotopic xenograft, survival and metastasis over 50 days; format: in vivo, athymic nu/nu mice
Experimental: To evaluate the effectiveness of SMI-10B13 against survivability and metastasis, we performed a related but separate experiment. As before, mice were treated with either vehicle or SMI-10B13 12 h prior to tumor cell injection and monitored for tumor growth while receiving treatment 3x weekly (Figure A). […] After 50 days, all mice were sacrificed, and metastases were evaluated with ex vivo imaging. […] Thus, for the first time, we have shown that an anti-OSM small molecule inhibitor may inhibit breast cancer progression and metastasis.
(§1) Seven- to eight-week-old athymic nu/nu mice were purchased from Jackson Laboratory and quarantined for 6 days. Twelve hours before tumor cell injection, the mice were grouped and injected intraperitoneally (i.p.) with 50 mg/kg of SMI-10B13 or vehicle (10% DMSO, 10% EtOH, 20% Cremophor EL, 60% propylene glycol; diluted in half with PBS). The following morning, MCF-7-Luc-flOSM cells (described above) were grown to 70–75% confluency, and the cells were concentrated to 4.0 × 10^7 cells/mL in PBS containing serum-free RPMI-1640. A 50 μL cell suspension was injected into the fourth mammary fat pad, resulting in 2.0 × 10^6 cells/injection. Mice were then injected (via i.p.) 3x weekly with SMI-10B13 or the vehicle control. Mice were also injected 1x weekly with D-luciferin (PerkinElmer; 122799–5) for bioluminescence detection for a period of 40–50 days, and 3x weekly for tumor growth via caliper measurement. Animals were sacrificed, and their serum and tumors were collected for analysis. Organs were harvested, and ex vivo imaging was performed to evaluate metastasis. All in vivo and ex vivo imaging was performed as previously described. All animal experiments were performed following the protocols evaluated and approved by the Boise State University Institutional Animal Care and Use Committee (IACUC) (Ethics Approval Number: AC23-043).

[3] = test system: MCF-7-luc-OSM-overexpressing cells; format: in vivo
Experimental: To evaluate SMI-10B13 on OSM inhibition in vivo, athymic nu/nu mice were randomized and given equal dose of either vehicle or SMI-10B13 (50 mg/kg) 12 h before tumor cell injection. Mice were then injected with 2 × 10^6 cells in the fourth mammary fat pad and monitored for tumor growth over 40 days, receiving either vehicle or SMI-10B13 treatment 3x weekly and evaluated for tumor growth until the end point of the experiment (Figure A).
as §1

OSM = molecular target: T2, OSM (Homo sapiens, UniProt P13725); assay: Fluorescence quenching assay of SMI binding to OSM; conditions: average of three independent replicates, errors at 95% confidence level, read-out: KD (OSM-SMI dissociation constant)
T2 sequence (P13725 26-252): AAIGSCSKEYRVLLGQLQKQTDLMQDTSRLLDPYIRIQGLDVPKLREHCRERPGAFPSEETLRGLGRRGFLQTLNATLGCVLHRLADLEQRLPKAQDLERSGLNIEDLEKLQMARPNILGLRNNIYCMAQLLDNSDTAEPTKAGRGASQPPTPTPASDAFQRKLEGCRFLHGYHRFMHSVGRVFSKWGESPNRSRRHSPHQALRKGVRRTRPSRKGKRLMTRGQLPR
Experimental: To perform fluorescence quenching assays, 2 mL of 1 μM OSM solution in polymethylmethacrylate cuvettes was prepared by dilution of a concentrated stock solution of recombinant OSM with buffer solution (100 mM sodium chloride, 50 mM sodium phosphate, 50 mM freshly added DTT, pH = 6.6). Cuvettes were titrated with 5 μL increments of a 1 mM small molecule stock solution in DMSO, with a cuvette titrated with an equivalent volume of DMSO as a control. […] In cases where little to no significant quenching was observed, the titration was supplemented with 2.5 μL increments of a 10 mM small molecule stock solution to increase the concentration delivered. The fluorescence intensity measurements were obtained on a Cary Eclipse spectrofluorometer equipped with a Xenon arc lamp. Fluorescence intensities were measured by exciting at 280 nm (4 nm slit width) and recording the emission from 345 to 355 nm with a photomultiplier tube voltage of 700 V, unless otherwise noted. Each titration point was normalized to OSM’s native fluorescence intensity, corrected by adding the decrease in fluorescence intensity caused by dilution with DMSO, and the average value of the three replicates for each point was plotted against concentration of small molecule delivered and fit to a modified Stern–Volmer function as described by Charlier and Plapp. Binding affinity (K D) values were obtained […] from the fitting routine. All curve-fitting analysis was performed in GraphPad Prism 8.0.

gp130 = molecular target: T3, gp130 (Homo sapiens, UniProt P40189); assay: Fluorescence quenching check of SMI binding to gp130; conditions: data not shown
T3 construct: purchased R&D Systems 671-GP
T3 sequence (P40189 23-619 limits assumed): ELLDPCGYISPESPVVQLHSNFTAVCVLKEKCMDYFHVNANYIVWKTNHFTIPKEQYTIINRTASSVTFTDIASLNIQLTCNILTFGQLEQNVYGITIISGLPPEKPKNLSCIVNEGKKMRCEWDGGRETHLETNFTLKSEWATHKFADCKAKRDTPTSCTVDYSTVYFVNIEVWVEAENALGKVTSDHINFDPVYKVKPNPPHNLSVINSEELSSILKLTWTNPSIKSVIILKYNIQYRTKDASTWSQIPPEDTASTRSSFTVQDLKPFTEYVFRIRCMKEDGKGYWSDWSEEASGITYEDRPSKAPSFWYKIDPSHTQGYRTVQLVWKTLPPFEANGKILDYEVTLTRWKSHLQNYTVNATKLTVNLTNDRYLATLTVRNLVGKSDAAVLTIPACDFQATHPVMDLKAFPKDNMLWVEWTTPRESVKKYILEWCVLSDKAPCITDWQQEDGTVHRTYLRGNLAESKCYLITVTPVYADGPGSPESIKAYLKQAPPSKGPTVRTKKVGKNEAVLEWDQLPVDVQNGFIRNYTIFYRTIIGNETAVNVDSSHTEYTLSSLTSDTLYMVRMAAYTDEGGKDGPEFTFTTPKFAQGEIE

Row | SMILES | Inhibition of gp130 binding to immobilized OSM ([1]; SMI 100 μM) | IC50 ([1]; SPR surface competition, estimated, read-out: estimated IC50 for inhibition of gp130 binding to immobilized OSM) [µM] | Survival (Kaplan-Meier) vs vehicle ([2]; 50 mg/kg i.p. 3x weekly, 50 days, p = 0.04) | Lung metastases fluorescent intensity (ex vivo imaging) ([2]; 50 mg/kg i.p. 3x weekly, after 50 days) | Tumor size vs vehicle ([2]; 50 days experiment, end point) | Lung metastasis intensity vs vehicle ([2]; ex vivo imaging, 50 days) | Tumor size diameter (mm) at end point vs vehicle control ([3]; 50 mg/kg i.p. 3x weekly, 40 days, caliper) | Bioluminescent tumor detection vs vehicle control ([3]; 50 mg/kg i.p. 3x weekly, 40 days, weekly imaging) | Signs of drug-related toxicity in mice ([3]; mouse, in vivo) | Kd (OSM) | Binding to gp130 (gp130)
1 | O=C(O)/C=C/c1cc(-c2ccc3cc[nH]c3c2)c(-c2ccc3cc[nH]c3c2)o1 [SMI-10B13, (E)-3-(4,5-di(1H-Indol-6-yl)furan-2-yl)acrylic Acid] | almost completely inhibited | 30 to 100 | improved survival; also recorded: prolonged survival; also recorded: increase survival | 41.9 × 10^5 intensity | overall smaller tumors | reduction in intensity was not statistically significant; also recorded: trend toward significance in decreasing lung metastasis intensity | significant reduction in tumor mm size | significant reduction in bioluminescent detection | none of the mice injected with SMI exhibited any signs of drug-related toxicity | ~7 µM and 6.6 µM | does not bind to gp130
2 | O=C(O)/C=C/c1cc(-c2ccc3c(c2)OCO3)c(-c2ccc3c(c2)OCO3)o1 [SMI-10B, (E)-3-(4,5-Bis(benzo[d][1,3]dioxol-5-yl)furan-2-yl)acrylic acid] |  |  |  |  |  |  |  |  |  | 12.9 ± 1.5 µM | 
